Source: US20140100217A1, “[…] OF PROLINE-RICH PEPTIDES AND THEIR USE” (priority 2012, published 2014)
No end group written: not given here.

Columns and labels:
VASP-EVH1 domain [1] = biological target: T1, VASP-EVH1 domain (Homo sapiens, UniProt P50552); type: binding
T1 construct: ligand peptides with the VASP-EVH1 domain in solution

VASP-EVH1 domain [2] = biological target: T1, VASP-EVH1 domain; experiment: Binding affinity of ligand peptides by kinetic Biacore method
Description: With the aid of the synthetic compound 85, ligand peptides with partially or completely replaced proline sequences were synthesized by way of example and investigated for their interaction with the EVH1 domain (pp=component 85). […] The binding affinities were determined by means of NMR titration, the kinetic Biacore method or by means of fluorescence titration.

T1 sequence (P50552 2-113): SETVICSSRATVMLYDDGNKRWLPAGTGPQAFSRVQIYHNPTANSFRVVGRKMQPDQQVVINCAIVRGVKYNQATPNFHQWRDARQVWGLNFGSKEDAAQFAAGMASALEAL

## FPPPPT [FPPPPT]
VASP-EVH1 domain [1]
  binding affinity (KD): measurable affinity for the VASP-EVH1 domain could no longer be determined

## CC(C)C[C@H](NC(=O)[C@H](CCC(=O)O)NC(=O)[C@H](CC(=O)O)NC(=O)[C@H](CCC(=O)O)NC(=O)[C@@H](NC(=O)[C@@H]1CCCN1C(=O)[C@@H]1CC[C@@H]2C=C[C@@H](C)[C@H](NC(=O)[C@@H]3CCCN3C(=O)[C@H](Cc3c[nH]c4ccccc34)NC(=O)[C@H](CCC(=O)O)NC(=O)[C@H](Cc3ccccc3)NC(=O)[C@@H](N)CO)C(=O)N21)[C@@H](C)O)C(=O)O [SFEWPppPTEDEL (II)]
VASP-EVH1 domain [2]
  Kd: 3.7 to 12.5 µM
